Source: US20120040930A1, “TETRACYCLIC TERPENE SERIES COMPOUNDS, METHODS FOR PREPARING SAME, USES THEREOF AS MEDICINES AND PHARMACEUTICAL COMPOUNDS CONTAINING SAME” (priority 2005, published 2012)
Where “and” joins values, the source holds several entries; their conditions need not be identical. Equal values may be shown once. Read-outs that look alike come from different tables or passages of the source.

Tests used:
[1] = molecular target: T1, acetylcholinesterase (AChE) isolated from Electrophorus electricus (Electrophorus electricus, UniProt O42275); test: biochemical
T1 construct: AChE isolated from Electrophorus electricus; from tissue
T1 sequence (O42275 24-633): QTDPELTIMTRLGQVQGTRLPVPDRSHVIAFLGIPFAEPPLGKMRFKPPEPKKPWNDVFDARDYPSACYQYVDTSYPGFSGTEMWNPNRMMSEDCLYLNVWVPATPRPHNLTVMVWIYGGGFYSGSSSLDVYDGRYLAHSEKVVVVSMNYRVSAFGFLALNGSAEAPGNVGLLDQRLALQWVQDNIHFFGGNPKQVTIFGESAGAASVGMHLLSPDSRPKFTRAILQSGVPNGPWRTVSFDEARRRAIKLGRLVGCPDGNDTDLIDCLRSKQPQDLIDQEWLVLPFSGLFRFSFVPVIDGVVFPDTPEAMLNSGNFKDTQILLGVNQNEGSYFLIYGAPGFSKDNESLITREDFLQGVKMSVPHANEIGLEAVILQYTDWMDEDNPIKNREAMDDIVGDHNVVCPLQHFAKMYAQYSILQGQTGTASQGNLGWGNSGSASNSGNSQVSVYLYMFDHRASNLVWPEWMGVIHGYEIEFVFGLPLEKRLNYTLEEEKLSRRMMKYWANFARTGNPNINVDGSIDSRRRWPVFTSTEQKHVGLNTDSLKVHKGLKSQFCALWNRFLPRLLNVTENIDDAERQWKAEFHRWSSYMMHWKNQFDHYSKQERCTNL

[2] = molecular target: T2, human serum butyrylcholinesterase (BChE) (Homo sapiens, UniProt P06276); test: biochemical
T2 construct: BChE isolated from human serum; from tissue; host or cells: human serum
T2 sequence (P06276 29-602): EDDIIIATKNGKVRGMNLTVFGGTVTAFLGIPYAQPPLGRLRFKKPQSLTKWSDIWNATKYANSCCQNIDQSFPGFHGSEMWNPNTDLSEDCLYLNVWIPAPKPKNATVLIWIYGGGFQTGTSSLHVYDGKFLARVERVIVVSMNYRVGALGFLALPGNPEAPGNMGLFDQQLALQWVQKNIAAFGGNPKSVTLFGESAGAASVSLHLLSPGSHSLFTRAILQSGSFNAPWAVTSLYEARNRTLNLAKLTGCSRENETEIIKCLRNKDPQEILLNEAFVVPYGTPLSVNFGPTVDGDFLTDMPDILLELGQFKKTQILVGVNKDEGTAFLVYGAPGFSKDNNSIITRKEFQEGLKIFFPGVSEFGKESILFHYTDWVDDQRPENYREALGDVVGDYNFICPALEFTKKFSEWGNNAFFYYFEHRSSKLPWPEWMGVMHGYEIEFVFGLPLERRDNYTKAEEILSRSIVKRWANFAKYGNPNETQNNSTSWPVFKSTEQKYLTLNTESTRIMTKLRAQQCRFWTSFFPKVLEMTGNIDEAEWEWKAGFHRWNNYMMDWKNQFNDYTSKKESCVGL

[3] = AChE isolated from Electrophorus electricus, read-out: AChE IC50
[4] = human serum BChE, read-out: BChE

Structure (SMILES) | IC50 [1, 3] | IC50 [2, 4] | IC50 ([1]; AChE IC50) | IC50 [2]
CC(C)C1=NC2CC=C3C[C@H]4C(=O)C[C@]5(C)[C@@H]([C@H](C)N(C)C)[C@H](O)C[C@@]5(C)[C@@H]4CC[C@H]3[C@]2(C)CO1 (stereo partly drawn) [Compound 1, (20S)-10(9->1)abeo-4,14α-dimethyl-20-dimethylamino-(2′-isopropyl-4′,4′-dihydro[3′,1′]oxazine)-5α,9-pregn-1(10)-en-16α-ol-11-one] | 31 nM and 32 nM | > 1000 nM |  | 
C[C@@H]([C@H]1[C@H](O)C[C@@]2(C)[C@@H]3CC[C@H]4[C@](C)(CO)[C@@H](N)CC[C@@]45CC35C(=O)C[C@]12C)N(C)C (stereo partly drawn) [Compound 5, (20S)-3-amino-9,19-cyclo-4α-hydroxymethyl-4,14α-dimethyl-20-dimethylamino-5α,9-pregnan-16α-ol-11-one] | > 5000 nM | > 30000 nM |  | 
C[C@@H]([C@H]1[C@H](O)C[C@@]2(C)[C@@H]3CC[C@H]4[C@](C)(CO)[C@@H](NC(=O)c5ccccc5)CC[C@@]45CC35C(=O)C[C@]12C)N(C)C (stereo partly drawn) [Compound 6b, (20S)-3-benzoylamino-9,19-cyclo-4α-hydroxymethyl-4,14α-dimethyl-20-dimethylamino-5α,9-pregnan-16α-ol-11-one] | > 10000 nM | 2210 nM |  | 
C[C@@H]([C@H]1[C@H](O)C[C@@]2(C)[C@@H]3CC[C@@H]4C5(CC[C@H](NC(=O)C6CCCCC6)[C@@]4(C)CO)C[C@@]35C(=O)C[C@]12C)N(C)C (stereo partly drawn) [Compound 6d, (20S)-3-(cyclohexanecarboxylamino)-9,19-cyclo-4α-hydroxymethyl-4,14α-dimethyl-20-dimethylamino-5α,9-pregnan-16α-ol-11-one] | > 10000 nM | > 5000 nM |  | 
CCC(C)C(=O)N[C@H]1CCC23C[C@]24C(=O)C[C@]2(C)[C@@H]([C@H](C)N(C)C)[C@H](O)C[C@@]2(C)[C@@H]4CC[C@H]3[C@]1(C)CO (stereo partly drawn) [Compound 6h, (20S)-9,19-cyclo-4α-hydroxymethyl-4,14α-dimethyl-20-dimethylamino-3 (2-methylbutyrylamino)-5α,9-pregnan-16α-ol-11-one] | > 100000 nM | 121 nM |  | 
C[C@@H]([C@H]1[C@H](O)C[C@@]2(C)[C@@H]3CC[C@@H]4C(=CC[C@H](NC(=O)c5ccccc5)[C@@]4(C)CO)C[C@H]3C(=O)C[C@]12C)N(C)C [Compound 7b, (20S)-10(9->1)abeo-3-benzoylamino-4α-hydroxymethyl-4,14α-dimethyl-20-dimethylamino-5α,9-pregn-1(10)-en-16α-ol-11-one] | > 10000 nM | 1880 nM |  | 
CCC(=O)N[C@H]1CC=C2C[C@H]3C(=O)C[C@]4(C)[C@@H]([C@H](C)N(C)C)[C@H](O)C[C@@]4(C)[C@@H]3CC[C@H]2[C@]1(C)CO [Compound 7c, (20S)-10(9->1)abeo-4α-hydroxymethyl-4,14α-dimethyl-20-dimethylamino-3-propionylamino-5α,9-pregn-1(10)-en-16α-ol-11-one] | > 1000 nM | > 10000 nM |  | 
C[C@@H]([C@H]1[C@H](O)C[C@@]2(C)[C@@H]3CC[C@@H]4C(=CC[C@H](NC(=O)C5CCCCC5)[C@@]4(C)CO)C[C@H]3C(=O)C[C@]12C)N(C)C [Compound 7d, (20S)-10(9->1)abeo-3-(cyclohexanecarboxyamino)-4α-hydroxymethyl-4,14α-dimethyl-20-dimethylamino-5α,9-pregn-1(10)-en-16α-ol-11-one] | > 1000 nM | 4020 nM |  | 
CCC(C)C(=O)N[C@H]1CC=C2C[C@H]3C(=O)C[C@]4(C)[C@@H]([C@H](C)N(C)C)[C@H](O)C[C@@]4(C)[C@@H]3CC[C@H]2[C@]1(C)CO (stereo partly drawn) [Compound 7e, (20S)-10(9->1)abeo-4α-hydroxymethyl-4,14α-dimethyl-20-dimethylamino-3 (S-2-methylbutyrylamino)-5α,9-pregn-1(10)-en-16α-ol-11-one] |  | > 10000 nM | 105 nM | 
C[C@@H]([C@H]1[C@H](O)C[C@@]2(C)[C@@H]3CC[C@@H]4C(=CC[C@H](NC(=O)C(C)(C)C)[C@@]4(C)CO)C[C@H]3C(=O)C[C@]12C)N(C)C [Compound 7f, (20S)-10(9->1)abeo-4α-hydroxymethyl-4,14α-dimethyl-20-dimethylamino-3 (2,2-dimethylpropionylamino)-5α,9-pregn-1(10)-en-16α-ol-11-one] | 4830 nM | > 1000 nM |  | 
C[C@@H]([C@H]1[C@H](O)C[C@@]2(C)[C@@H]3CC[C@@H]4C(=CC[C@H](NC(=O)Cc5ccccc5)[C@@]4(C)CO)C[C@H]3C(=O)C[C@]12C)N(C)C [Compound 7g, (20S)-10(9->1)abeo-4α-hydroxymethyl-4,14α-dimethyl-20-dimethylamino-3 (phenylacetylamino)-5α,9-pregn-1(10)-en-16α-ol-11-one] | > 1000 nM | > 10000 nM |  | 
C[C@@H]([C@H]1[C@H](O)C[C@@]2(C)[C@@H]3CC[C@@H]4C(=CC[C@@H]5N=C(C6CCCCC6)OC[C@]54C)C[C@H]3C(=O)C[C@]12C)N(C)C [Compound 8d, (20S)-10(9->1)abeo-4,14α-dimethyl-20-dimethylamino(2′-cyclohexyl-4′,4′-dihydro[3′,1′]oxazin)-5α,9-pregn-1(10)-en-16α-ol-11-one] | 403 nM | 375 nM |  | 
CC(C)[C@H]1N[C@H]2CCC34C[C@]35C(=O)C[C@]3(C)[C@@H]([C@H](C)N(C)C)[C@H](O)C[C@@]3(C)[C@@H]5CC[C@H]4[C@]2(C)CO1 (stereo partly drawn) [Compound 9, (20S)-9,19-cyclo-4,14α-dimethyl-20-dimethylamino(2′β-isopropyl-1′,2′,4′,4′-tetrahydro[3′,1′]oxazin)-5α,9-pregnan-16α-ol-11-one] | 2380 nM |  |  | > 10000 nM
C[C@@H]([C@H]1[C@H](O)C[C@@]2(C)[C@@H]3CC[C@@H]4C(=CC[C@H](N)[C@@]4(C)CO)C[C@H]3C(=O)C[C@]12C)N(C)C [Compound 11, (20S)-10(9->1)abeo-3-amino-4α-hydroxymethyl-4,14α-dimethyl-20-dimethylamino-5α,9-pregn-1(10)-en-16α-ol-11-one] | 1500 nM | > 10000 nM |  | 
CC(=O)O[C@@H]1C[C@@]2(C)[C@@H]3CC[C@@H]4C5(CC[C@H](NC(=O)C(C)C)[C@@]4(C)CO)C[C@@]35C(=O)C[C@]2(C)[C@H]1[C@H](C)N(C)C (stereo partly drawn) [Compound 13, (20S)-16α-acetyl-3-isobutyrylamino-9,19-cyclo-4α-hydroxymethyl-4,14α-dimethyl-20-dimethylamino-5α,9-pregnan-11-one] | > 10000 nM | > 1000 nM |  | 
CC(=O)O[C@@H]1C[C@@]2(C)[C@@H]3CC[C@@H]4C5(CC[C@H](NC(=O)C(C)C)[C@@]4(C)C=O)C[C@@]35C(=O)C[C@]2(C)[C@H]1[C@H](C)N(C)C (stereo partly drawn) [Compound 14, (20S)-16α-acetyl-3-isobutyrylamino-9,19-cyclo-4α-formyl-4,14α-dimethyl-20-dimethylamino-5α,9-pregnan-11-one] | > 1000 nM | > 1000 nM |  | 
CC(C)C(=O)N[C@H]1CCC23C[C@]24C(=O)C[C@]2(C)[C@@H]([C@H](C)N(C)C)[C@H](OC(=O)C(C)(C)C)C[C@@]2(C)[C@@H]4CC[C@H]3[C@]1(C)/C=N/Cc1ccccc1 (stereo partly drawn) [Compound 19, (20S)-16α-pivalyl-3-isobutyrylamino-9,19-cyclo-4α-benzyliminomethyl-4,14α-dimethyl-20-dimethylamino-5α,9-pregnan-11-one] | > 1000 nM | 1280 nM |  | 
CC(=O)O[C@@H]1C[C@@]2(C)[C@@H]3CC[C@@H]4C5(CC[C@H](NC(=O)C(C)C)[C@@]4(C)COS(=O)(=O)c4ccc(C)cc4)C[C@@]35C(=O)C[C@]2(C)[C@H]1[C@H](C)N(C)C (stereo partly drawn) [Compound 23, (20S)-16α-acetyl-3-isobutyrylamino-9,19-cyclo-4α-hydroxytosylmethyl-4,14α-dimethyl-20-dimethylamino-5α,9-pregnan-11-one] | 4370 nM | > 100000 nM |  | 
CC(C)C(=O)N[C@H]1CCC23C[C@]24C(=O)C[C@]2(C)[C@@H]([C@H](C)N(C)C)[C@H](O)C[C@@]2(C)[C@@H]4CC[C@H]3[C@]1(C)COCc1ccccc1 (some centres unmarked) [Compound 27] | 16800 nM | 5200 nM |  | 
C[C@@H]([C@H]1[C@H](O)C[C@@]2(C)[C@@H]3CC[C@@H]4C5(CC[C@H](N)[C@@]4(C)CO)C[C@@]35[C@@H](O)C[C@]12C)N(C)C (stereo partly drawn) [Compound 28, (20S)-3-amino-9,19-cyclo-4α-hydroxymethyl-4,14α-dimethyl-20-dimethylamino-5α,9-pregnan-16α,11-diol-11-one] | > 1000 nM | 2450 nM |  | 
CC(C)C(=O)N[C@H]1CCC23C[C@]24C(=O)C[C@]2(C)[C@@H]([C@H](C)[N+](C)(C)[O-])[C@H](O)C[C@@]2(C)[C@@H]4CC[C@H]3[C@]1(C)CO (stereo partly drawn) [Compound 29, (20S)-3-isobutyrylamino-9,19-cyclo-4α-hydroxymethyl-4,14α-dimethyl-20-dimethylazinoyl-5α,9-pregnan-16α,11-ol-11-one] | 1420 nM | > 1000 nM |  | 
CC(C)C1=NC2CC[C@H]3C=C4C(=O)C[C@]5(C)[C@@H]([C@H](C)N(C)C)[C@H](O)C[C@@]5(C)[C@@H]4CC[C@H]3[C@]2(C)CO1 (stereo partly drawn) [Compound 32, (20S)-9(10->19)abeo-4,14α-dimethyl-20-dimethylamino(2′-isopropyl-4′,4′-dihydro[3′,1′]oxazin)-5α,9-pregn-1(10)-en-16α-ol-11-one] | 112 nM |  |  | 1440 nM
